Source: US20130029962A1, “Substituted Heteroaromatic Pyrazole-Containing Carboxamide and Urea Compounds as Vanilloid Receptor Ligands” (Gruenenthal GmbH, priority 2011, published 2013)

Molecular target: T1, vanilloid receptor 1 (VR1/TRPV1 receptor) (Homo sapiens, UniProt Q8NER1)
T1 construct: expressed in transfected cells; host or cells: CHO K1
Assay: Functional testing on the vanilloid receptor 1 (VR1/TRPV1): FLIPR Ca2+ influx assay, displacement of capsaicin
Type: cell-based, human being
Set-up: key to mode of action at VR1/TRPV1 (AG, pAG, NE), Cap: AG=agonist; NE=no effect; pAG=partial agonist
Conditions: for Ki: capsaicin (Cap) as stimulus, Ki from IC50 by Cheng-Prusoff, read-out: (f) Ki (human being) [nM] Cap
Outline: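 Fluo-4 FLIPR Ca2+ influx in CHO K1 cells transfected with human VR1, measuring displacement of 100 nM capsaicin; rat VR1 agonism/antagonism also assessed in rat dorsal root ganglion neurons cultured 2–3 days at 37° C with 25 ng/mL NGF, then loaded with 2 μM Fluo-4.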

T1 sequence (Q8NER1 whole entry): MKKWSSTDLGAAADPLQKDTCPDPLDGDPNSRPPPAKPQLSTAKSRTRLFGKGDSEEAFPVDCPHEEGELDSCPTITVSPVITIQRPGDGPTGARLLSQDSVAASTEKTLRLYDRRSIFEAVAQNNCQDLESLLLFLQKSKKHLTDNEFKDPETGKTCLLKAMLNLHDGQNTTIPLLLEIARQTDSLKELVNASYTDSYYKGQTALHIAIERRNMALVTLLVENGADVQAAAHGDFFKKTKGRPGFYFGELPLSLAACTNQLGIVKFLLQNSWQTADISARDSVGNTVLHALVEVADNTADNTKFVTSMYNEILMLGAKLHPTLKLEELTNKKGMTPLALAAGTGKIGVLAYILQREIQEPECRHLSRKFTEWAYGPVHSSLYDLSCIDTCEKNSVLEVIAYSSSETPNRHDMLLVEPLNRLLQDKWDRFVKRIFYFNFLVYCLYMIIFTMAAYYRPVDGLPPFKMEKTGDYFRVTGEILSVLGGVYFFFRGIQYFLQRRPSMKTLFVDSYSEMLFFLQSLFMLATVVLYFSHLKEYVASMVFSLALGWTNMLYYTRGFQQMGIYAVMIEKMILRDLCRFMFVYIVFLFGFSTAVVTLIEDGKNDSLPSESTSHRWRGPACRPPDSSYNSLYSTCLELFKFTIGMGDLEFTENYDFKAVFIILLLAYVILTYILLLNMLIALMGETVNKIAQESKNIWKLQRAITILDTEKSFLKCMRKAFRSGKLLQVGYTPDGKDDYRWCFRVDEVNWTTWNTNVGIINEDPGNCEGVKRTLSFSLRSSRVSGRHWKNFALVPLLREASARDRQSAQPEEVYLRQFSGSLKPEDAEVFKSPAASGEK

inhibition at 5 µM (5 μM compound, capsaicin (Cap), human being, read-out: inhibition (as a percentage) at the concentration after @, Cap) [%] | mode of action at VR1/TRPV1 (AG, pAG, NE), Cap (capsaicin (Cap), human being) | Ki [nM] | Structure (SMILES)
98 | AG |  | CC(C(=O)NCc1cc(C(C)(C)C)nn1-c1cccc(Cl)c1)c1ccc(NC(=O)c2ccccc2)nc1 (stereo not shown) [Example 91, N-(5-(1-((3-tert-butyl-1-(3-chlorophenyl)-1H-pyrazol-5-yl)methylamino)-1-oxopropan-2-yl)pyridin-2-yl)benzamide]
 |  | 101 | Cc1cccc(-n2nc(C(F)(F)F)cc2CNC(=O)Nc2ccc(CO)nc2)c1 [Example 36, 1-(6-(hydroxymethyl)pyridin-3-yl)-3-((1-m-tolyl-3-(trifluoromethyl)-1H-pyrazol-5-yl)methyl)urea]
 |  | 77 | O=C(Cc1cncnc1)NCc1cc(C(F)(F)F)nn1-c1cccc(Cl)c1 [Example 16, N-((1-(3-chlorophenyl)-3-(trifluoromethyl)-1H-pyrazol-5-yl)methyl)-2-(pyrimidin-5-yl)acetamide]
